{"source": "patent US10787446B2", "about": "(GENENTECH, INC., priority 2015, dated 2020)", "note": "Counter-ions that a name gives are not always drawn.", "data": [{"target": "T1, hNav1.7 and the β1 subunit (Homo sapiens, UniProt Q15858)", "T1 construct": "expressed in transfected cells", "T1 sequence (Q15858 whole entry)": "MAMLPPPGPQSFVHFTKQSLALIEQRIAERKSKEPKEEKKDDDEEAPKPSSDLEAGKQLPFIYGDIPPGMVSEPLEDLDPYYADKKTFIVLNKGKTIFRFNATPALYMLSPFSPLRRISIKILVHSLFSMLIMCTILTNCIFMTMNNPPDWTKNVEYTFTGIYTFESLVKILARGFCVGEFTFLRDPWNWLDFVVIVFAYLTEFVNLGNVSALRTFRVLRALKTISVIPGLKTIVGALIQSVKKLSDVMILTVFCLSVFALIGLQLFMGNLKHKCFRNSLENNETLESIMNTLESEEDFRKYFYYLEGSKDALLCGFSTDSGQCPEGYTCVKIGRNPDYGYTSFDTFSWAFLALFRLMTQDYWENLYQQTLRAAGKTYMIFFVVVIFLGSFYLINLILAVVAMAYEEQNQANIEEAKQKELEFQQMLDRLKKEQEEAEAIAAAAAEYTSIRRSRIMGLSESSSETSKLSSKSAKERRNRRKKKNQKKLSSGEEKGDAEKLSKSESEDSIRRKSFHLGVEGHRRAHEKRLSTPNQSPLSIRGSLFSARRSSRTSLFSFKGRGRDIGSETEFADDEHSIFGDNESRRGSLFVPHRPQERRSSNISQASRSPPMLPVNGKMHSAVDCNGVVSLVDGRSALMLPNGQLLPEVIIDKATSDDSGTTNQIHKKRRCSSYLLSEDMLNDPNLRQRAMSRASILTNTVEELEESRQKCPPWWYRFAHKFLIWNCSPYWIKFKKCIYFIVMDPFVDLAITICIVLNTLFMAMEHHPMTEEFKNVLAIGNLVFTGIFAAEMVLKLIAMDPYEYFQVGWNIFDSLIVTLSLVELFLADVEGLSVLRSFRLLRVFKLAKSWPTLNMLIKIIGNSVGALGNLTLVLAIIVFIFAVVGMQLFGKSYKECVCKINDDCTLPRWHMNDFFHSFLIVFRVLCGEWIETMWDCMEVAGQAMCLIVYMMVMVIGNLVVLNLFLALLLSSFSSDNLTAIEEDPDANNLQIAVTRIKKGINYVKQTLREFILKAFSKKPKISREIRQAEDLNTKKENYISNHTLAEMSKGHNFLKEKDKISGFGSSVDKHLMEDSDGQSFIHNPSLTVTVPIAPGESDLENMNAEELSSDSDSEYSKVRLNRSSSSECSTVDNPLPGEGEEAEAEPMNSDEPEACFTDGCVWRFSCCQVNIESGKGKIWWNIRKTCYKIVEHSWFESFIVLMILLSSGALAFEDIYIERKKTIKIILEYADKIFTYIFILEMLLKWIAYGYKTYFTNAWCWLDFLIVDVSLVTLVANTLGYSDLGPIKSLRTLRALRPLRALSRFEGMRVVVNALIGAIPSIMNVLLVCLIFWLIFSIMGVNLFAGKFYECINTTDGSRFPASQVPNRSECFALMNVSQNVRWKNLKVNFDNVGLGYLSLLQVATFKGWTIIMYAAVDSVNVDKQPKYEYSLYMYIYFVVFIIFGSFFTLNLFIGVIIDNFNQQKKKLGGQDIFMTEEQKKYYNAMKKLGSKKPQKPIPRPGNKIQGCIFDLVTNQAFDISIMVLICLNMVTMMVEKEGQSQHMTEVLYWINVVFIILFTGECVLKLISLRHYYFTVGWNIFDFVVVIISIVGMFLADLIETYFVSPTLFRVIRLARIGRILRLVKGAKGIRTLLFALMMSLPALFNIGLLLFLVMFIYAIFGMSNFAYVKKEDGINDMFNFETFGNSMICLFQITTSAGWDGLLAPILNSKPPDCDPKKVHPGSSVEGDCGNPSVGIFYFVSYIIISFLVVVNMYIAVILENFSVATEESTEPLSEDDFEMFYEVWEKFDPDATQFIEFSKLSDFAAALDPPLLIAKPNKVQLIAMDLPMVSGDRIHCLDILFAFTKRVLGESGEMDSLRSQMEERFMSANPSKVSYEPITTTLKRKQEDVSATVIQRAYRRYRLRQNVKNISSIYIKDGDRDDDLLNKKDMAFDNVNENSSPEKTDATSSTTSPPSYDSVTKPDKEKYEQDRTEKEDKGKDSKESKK", "T1 sequence (Q07699 19-218 partner)": "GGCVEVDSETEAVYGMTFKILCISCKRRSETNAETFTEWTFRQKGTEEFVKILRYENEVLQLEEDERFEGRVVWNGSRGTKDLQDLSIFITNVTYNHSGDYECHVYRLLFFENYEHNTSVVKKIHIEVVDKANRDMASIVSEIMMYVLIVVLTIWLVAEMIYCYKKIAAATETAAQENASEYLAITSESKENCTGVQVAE", "test": "Tritiated compound competitive binding to membranes from cells heterologously expressing hNav1.7 and the β1 subunit (LBA)", "details": "competition with 100 pM [3H]compound, 18 h, room temperature; IC50 by 4 parameter logistic model", "experimental": "Example 235 Tritiated Compound Binding to Membranes Isolated from Cells that Heterologously Express hNav1.7 and the β1 Subunit\nPreparation of membranes containing recombinantly expressed sodium channels: Frozen recombinant cell pellets were thawed on ice and diluted to 4 times the cell pellet weight with ice cold 50 mM Tris HCl, pH 7.4 buffer. The cell suspensions were homogenized on ice using a motorized glass dounce homogeniser. Homogenates were further diluted 8.4 times with ice cold 50 mM Tris HCl, pH 7.4 buffer and then centrifuged at 200×g at 4° C. for 15 min. The supernatants were collected and centrifuged at 10000×g at 4° C. for 50 min. The pellets were then re-suspended in 100 mM NaCl, 20 mM Tris HCl, pH 7.4 buffer containing 1% v/v protease inhibitors (Calbiochem) and re-homogenized on ice. The homogenized membranes were then processed through a syringe equipped with a 26 gauge needle. Protein concentrations were determined by Bradford Assay and the membranes were stored at −80° C.\nRadioligand Binding Studies:\nSaturation experiments. A competitive NaV1.7 inhibitor having a methyl group was tritiated. Three tritiums were incorporated in place of methyl hydrogens to generate [^3H]compound. Binding of this radioligand was performed in 5 mL borosilicate glass test tubes at room temperature. Binding was initiated by adding membranes to increasing concentrations of [^3H]compound in 100 mM NaCl, 20 mM Tris HCl, pH 7.4 buffer containing 0.01% w/v bovine serum albumin (BSA) for 18 h. […] After 18 h, the reactants were filtered through GF/C glass fiber filters presoaked in 0.5% w/v polyethylene imine. […] [^3H]compound bound to filters was quantified by liquid scintillation counting.\nCompetitive Binding Experiments:\nBinding reactions were performed in 96-well polypropylene plates at room temperature for 18 h. In 360 μL, membranes were incubated with 100 pM [^3H]compound and increasing concentrations of Test Compound. […] Reactions were transferred and filtered through 96-well glass fiber/C filter plates presoaked with 0.5% polyethylene imine. The filtered reactions were washed 5 times with 200 μL ice cold buffer containing 0.25% BSA. Bound radioactivity was determined by liquid scintillation counting.\nData Analysis: For saturation experiments, non-specific binding was subtracted from total binding to provide specific binding and these values were recalculated in terms of pmol ligand bound per mg protein. Saturation curves were constructed and dissociation constants were calculated using the single site ligand binding model: Beq=(Bmax*X)/(X+Kd), where Beq is the amount of ligand bound at equilibrium, Bmax is the maximum receptor density, Kd is the dissociation constant for the ligand, and X is the free ligand concentration. For competition studies percent inhibition was determined and IC50 values were calculated using a 4 parameter logistic model (% inhibition=(A+((B−A)/(1+((x/C)^D)))) using XLfit, where A and B are the maximal and minimum inhibition respectively, C is the IC50 concentration and D is the (Hill) slope.", "units": {"Nav1.7 (LBA)": "µM"}, "values": [{"smiles": "C[C@@H]1CC[C@H](c2ccccc2)N(Cc2cc(F)c(S(=O)(=O)Nc3ncns3)cc2F)C1", "note": "(single isomer, unassigned) [Example 20]", "Nav1.7 (LBA)": 1.56}, {"smiles": "C[C@H]1CC[C@@H](c2ccccc2)N(Cc2cc(F)c(S(=O)(=O)Nc3ncns3)cc2F)C1", "note": "(single isomer, unassigned) [Example 21]", "Nav1.7 (LBA)": 0.672}, {"smiles": "C[C@H]1CCCN(Cc2cc(F)c(S(=O)(=O)Nc3ncns3)cc2F)[C@H]1c1ccccc1", "note": "(single isomer, unassigned) [Example 22]", "Nav1.7 (LBA)": 1.55}, {"smiles": "C[C@@H]1CCCN(Cc2cc(F)c(S(=O)(=O)Nc3ncns3)cc2F)[C@@H]1c1ccccc1", "note": "(single isomer, unassigned) [Example 23]", "Nav1.7 (LBA)": 0.366}, {"smiles": "O=S(=O)(Nc1ncns1)c1cc(F)c(CN2CCCC[C@H]2c2cn[nH]c2)cc1F", "note": "(single isomer, unassigned) [Example 25]", "Nav1.7 (LBA)": 2.24}, {"smiles": "O=S(=O)(Nc1ncns1)c1cc(F)c(CN2CCCC[C@H]2c2ccn[nH]2)cc1F", "note": "(single isomer, unassigned) [Example 27]", "Nav1.7 (LBA)": 0.118}, {"smiles": "O=S(=O)(Nc1ncns1)c1cc(F)c(CN2CC[C@@H](F)C[C@H]2c2ccccc2)cc1F", "note": "(single isomer, unassigned) [Example 28]", "Nav1.7 (LBA)": 5.98}, {"smiles": "O=S(=O)(Nc1ncns1)c1cc(F)c(CN2CC[C@H](F)C[C@@H]2c2ccccc2)cc1F", "note": "(single isomer, unassigned) [Example 29]", "Nav1.7 (LBA)": 0.157}, {"smiles": "O=S(=O)(Nc1ncns1)c1cc(F)c(CN2CC[C@@H](F)C[C@@H]2c2ccccc2)cc1F", "note": "(single isomer, unassigned) [Example 30]", "Nav1.7 (LBA)": 1.71}, {"smiles": "O=S(=O)(Nc1ncns1)c1cc(F)c(CN2CC[C@H](F)C[C@H]2c2ccccc2)cc1F", "note": "(single isomer, unassigned) [Example 31]", "Nav1.7 (LBA)": 0.374}, {"smiles": "O=S(=O)(Nc1ncns1)c1cc(F)c(CN2CCC(F)(F)C[C@H]2c2ccccc2)cc1F", "note": "(single isomer, unassigned) [Example 32]", "Nav1.7 (LBA)": 0.18}, {"smiles": "O=S(=O)(Nc1ncns1)c1cc(F)c(CN2CCC(F)(F)C[C@@H]2c2ccccc2)cc1F", "note": "(single isomer, unassigned) [Example 33]", "Nav1.7 (LBA)": 4.16}, {"smiles": "O=S(=O)(Nc1ncns1)c1cc(F)c(CN2CC[C@H](OC(F)(F)F)C[C@@H]2c2ccccc2)cc1F", "note": "(single isomer, unassigned) [Example 35]", "Nav1.7 (LBA)": 0.0786}, {"smiles": "O=S(=O)(Nc1ncns1)c1cc(F)c(CN2CC[C@H](OC(F)(F)F)C[C@H]2c2ccccc2)cc1F", "note": "(single isomer, unassigned) [Example 36]", "Nav1.7 (LBA)": 0.538}, {"smiles": "O=S(=O)(Nc1ncns1)c1ccc2c(c1)OCC[C@@H]2N1CCCC[C@H]1c1ccccc1", "note": "(single isomer, unassigned) [Example 37]", "Nav1.7 (LBA)": 0.0254}, {"smiles": "O=S(=O)(Nc1ncns1)c1ccc2c(c1)OCC[C@H]2N1CCCC[C@H]1c1ccccc1", "note": "(single isomer, unassigned) [Example 38]", "Nav1.7 (LBA)": 0.203}, {"smiles": "O=S(=O)(Nc1ncns1)c1ccc2c(c1)OCC[C@@H]2N1CCC[C@H]1c1ccccc1", "note": "(single isomer, unassigned) [Example 39]", "Nav1.7 (LBA)": 0.274}, {"smiles": "O=S(=O)(Nc1ncns1)c1ccc2c(c1)OCC[C@H]2N1CCC[C@H]1c1ccccc1", "note": "(single isomer, unassigned) [Example 40]", "Nav1.7 (LBA)": 0.798}, {"smiles": "O=S(=O)(Nc1ncns1)c1ccc2c(c1)CCC[C@@H]2N1CCCC[C@@H]1c1ccccc1", "note": "(single isomer, unassigned) [Example 51]", "Nav1.7 (LBA)": 0.482}, {"smiles": "O=S(=O)(Nc1ncns1)c1ccc2c(c1)CCC[C@@H]2N1CCCC[C@H]1c1ccccc1", "note": "(single isomer, unassigned) [Example 52]", "Nav1.7 (LBA)": 0.269}, {"smiles": "O=S(=O)(Nc1ncns1)c1ccc2c(c1)CCC[C@H]2N1CCCC[C@H]1c1ccccc1", "note": "(single isomer, unassigned) [Example 53, trifluoroacetic acid salt]", "Nav1.7 (LBA)": 0.271}, {"smiles": "O=S(=O)(Nc1ncns1)c1ccc2c(c1)CCC[C@@H]2N1CCCC[C@H]1c1ccccc1", "note": "(single isomer, unassigned) [Example 54]", "Nav1.7 (LBA)": 0.411}, {"smiles": "O=S(=O)(Nc1ncns1)c1ccc2c(c1)CCC[C@H]2N1CCCC[C@@H]1c1ccccc1", "note": "(single isomer, unassigned) [Example 55]", "Nav1.7 (LBA)": 0.286}, {"smiles": "O=S(=O)(Nc1ncns1)c1ccc2c(c1)CCC[C@@H]2N1CCCC[C@@H]1c1ccccc1", "note": "(single isomer, unassigned) [Example 56]", "Nav1.7 (LBA)": 1.25}, {"smiles": "C[C@@H](c1ccc(S(=O)(=O)Nc2ncns2)cc1Cl)N1CCCC[C@@H]1c1ccccc1", "note": "(single isomer, unassigned) [Example 59]", "Nav1.7 (LBA)": 5.04}, {"smiles": "C[C@H](c1ccc(S(=O)(=O)Nc2ncns2)cc1Cl)N1CCCC[C@@H]1c1ccccc1", "note": "(single isomer, unassigned) [Example 60]", "Nav1.7 (LBA)": 0.33}, {"smiles": "C[C@H](c1ccc(S(=O)(=O)Nc2ncns2)cc1Cl)N1CCCC[C@H]1c1ccccc1", "note": "(single isomer, unassigned) [Example 61]", "Nav1.7 (LBA)": 3.98}, {"smiles": "O=S(=O)(Nc1ncns1)c1ccc2c(c1)CCC2N1CCCCC1c1ccccc1", "note": "(single isomer, unassigned) [Example 66, 1-(2-phenylpiperidin-1-yl)-N-(1,2,4-thiadiazol-5-yl)-2,3-dihydro-1H-indene-5-sulfonamide]", "Nav1.7 (LBA)": 0.597}, {"smiles": "O=S(=O)(Nc1ncns1)c1ccc2c(c1)OCC[C@@H]2N1CCCC[C@H]1c1ccc(F)cc1", "note": "(single isomer, unassigned) [Example 76]", "Nav1.7 (LBA)": 0.0179}, {"smiles": "O=S(=O)(Nc1ncns1)c1ccc2c(c1)OCC[C@H]2N1CCCC[C@H]1c1ccc(F)cc1", "note": "(single isomer, unassigned) [Example 77]", "Nav1.7 (LBA)": 0.198}, {"smiles": "O=S(=O)(Nc1ncns1)c1ccc2c(c1)OCC[C@@H]2N1CCCC[C@@H]1c1ccc(F)cc1", "note": "(single isomer, unassigned) [Example 78]", "Nav1.7 (LBA)": 0.679}, {"smiles": "O=S(=O)(Nc1ncns1)c1ccc2c(c1)OCC[C@H]2N1CCCC[C@@H]1c1ccc(F)cc1", "note": "(single isomer, unassigned) [Example 79]", "Nav1.7 (LBA)": 0.0186}, {"smiles": "O=S(=O)(Nc1ncns1)c1ccc2c(c1)OCC[C@@H]2N1CCc2ccccc2[C@H]1c1ccccc1", "note": "(single isomer, unassigned) [Example 80]", "Nav1.7 (LBA)": 0.142}, {"smiles": "O=S(=O)(Nc1ncns1)c1ccc2c(c1)OCC[C@H]2N1CCc2ccccc2[C@H]1c1ccccc1", "note": "(single isomer, unassigned) [Example 81]", "Nav1.7 (LBA)": 0.435}, {"smiles": "O=S(=O)(Nc1ncns1)c1ccc2c(c1)OCC[C@@H]2N1CCN(CC(F)(F)F)C[C@H]1c1ccccc1", "note": "(single isomer, unassigned) [Example 82]", "Nav1.7 (LBA)": 0.0156}, {"smiles": "O=S(=O)(Nc1ncns1)c1ccc2c(c1)OCC[C@H]2N1CCN(CC(F)(F)F)C[C@H]1c1ccccc1", "note": "(single isomer, unassigned) [Example 83]", "Nav1.7 (LBA)": 0.0128}, {"smiles": "O=S(=O)(Nc1ncns1)c1cc2c(cc1F)[C@@H](N1CCCC[C@H]1c1ccccc1)CCO2", "note": "(single isomer, unassigned) [Example 84]", "Nav1.7 (LBA)": 0.00991}, {"smiles": "O=S(=O)(Nc1ncns1)c1cc2c(cc1F)[C@H](N1CCCC[C@H]1c1ccccc1)CCO2", "note": "(single isomer, unassigned) [Example 85]", "Nav1.7 (LBA)": 0.218}, {"smiles": "O=S(=O)(Nc1nccs1)c1cc2c(cc1F)[C@@H](N1CCCC[C@H]1c1ccccc1)CCO2", "note": "(single isomer, unassigned) [Example 90]", "Nav1.7 (LBA)": 0.00862}, {"smiles": "O=S(=O)(Nc1nccs1)c1cc2c(cc1F)[C@H](N1CCCC[C@H]1c1ccccc1)CCO2", "note": "(single isomer, unassigned) [Example 91]", "Nav1.7 (LBA)": 0.109}, {"smiles": "O=S(=O)(Nc1nccs1)c1cc2c(cc1F)[C@@H](N1CC[C@@H](C(F)(F)F)C[C@H]1c1ccc(F)cc1)CCO2", "note": "(single isomer, unassigned) [Example 92]", "Nav1.7 (LBA)": 0.000828}, {"smiles": "O=S(=O)(Nc1ncccn1)c1cc2c(cc1F)[C@@H](N1CCCC[C@H]1c1ccccc1)CCO2", "note": "(single isomer, unassigned) [Example 94]", "Nav1.7 (LBA)": 0.423}, {"smiles": "O=S(=O)(Nc1ncccn1)c1cc2c(cc1F)[C@H](N1CCCC[C@H]1c1ccccc1)CCO2", "note": "(single isomer, unassigned) [Example 95]", "Nav1.7 (LBA)": 1.54}]}]}
